From patent publication EP0498331B1, “N-(aryloxyalkyl)heteroaryl-8-azabicyclo(3.2.1)octanes, intermediates and a process for the preparation thereof and their use as medicaments” (HOECHST-ROUSSEL PHARMACEUTICALS INCORPORATED, priority 1991, dated 1992)
Structures can show the parent of a compound that is named as a salt. Where two headings read alike, the source gives them in different places.

Legend:
CK-1 male mice = test: climbing mice assay (antagonism of apomorphine-induced climbing); assay type: in vivo; settings: Mus musculus, ip, read-out: CLIMBING MOUSE ASSAY (ED₅₀ mg/kg, ip)
Experimental: The compounds of the present invention are useful for treating psychoses by virtue of their ability to elicit an antipsychotic response in animals. Antipsychotic activity is determined in the climbing mice assay by a method similar to those described by P. Protais, et al., Psychopharmacol., 50:1(1976) and B. Costall, Eur. J. Pharmacol., 50:39 (1978).
Subject CK-1 male mice (23-27 grams) are grouped-housed under standard laboratory conditions. The mice are individually placed in wire mesh stick cages (4" X 10") and are allowed one hour for adaption and exploration of the new environment. Then apomorphine is injected subcutaneously at 1.5 mg/kg, a dose causing climbing in all subjects for 30 minutes. Compounds to be tested for antipsychotic activity are injected intraperitoneally or given oral doses at various time intervals, e.g. 30 minutes, 60 minutes, etc. prior to the apomorphine challenge at a screening dose of 10-60 mg/kg.
For evaluation of climbing, 3 readings are taken at 10, 20 and 30 minutes after apomorphine administration according to the following scale:
Mice consistently climbing before the injection of apomorphine are discarded.
With fully-developed apomorphine climbing, the animals are hanging on to the cage walls, rather motionless, over longer periods of time. By contrast, climbs due to mere motor stimulation usually only last a few seconds.
The climbing scores are individually totaled (maximal score: 6 per mouse over 3 readings) and the total score of the control group (vehicle intraperitoneally-apomorphine subcutaneously) is set to 100%. ED₅₀ values with 95% confidence limits, calculated by a linear regression analysis, of representative compounds of the present invention as well as a standard antipsychotic agent are presented in Table 1.

[1] = molecular target: T1, serotonin (5-hydroxytryptamine [5HT]) uptake (Rattus norvegicus, UniProt P31652); test: ³H-serotonin uptake in rat whole brain and hypothalamic synaptosomes; assay type: biochemical; settings: inhibition of [³H]-5HT uptake, 50 nM ³H-5HT, rat whole brain minus cerebella or hypothalamus, 37°C for 5 minutes; log-probit analysis; read-out: 5-HT-IC₅₀
T1 construct: Either whole brain minus cerebella or hypothalmus is weighed and homogenized in 9 volumes of ice-cold 0.32 M sucrose; from tissue; host or cells: Male Wistar rat brain (whole brain minus cerebella, or hypothalamus), S1 supernatant / synaptosomes
T1 sequence (P31652 whole entry): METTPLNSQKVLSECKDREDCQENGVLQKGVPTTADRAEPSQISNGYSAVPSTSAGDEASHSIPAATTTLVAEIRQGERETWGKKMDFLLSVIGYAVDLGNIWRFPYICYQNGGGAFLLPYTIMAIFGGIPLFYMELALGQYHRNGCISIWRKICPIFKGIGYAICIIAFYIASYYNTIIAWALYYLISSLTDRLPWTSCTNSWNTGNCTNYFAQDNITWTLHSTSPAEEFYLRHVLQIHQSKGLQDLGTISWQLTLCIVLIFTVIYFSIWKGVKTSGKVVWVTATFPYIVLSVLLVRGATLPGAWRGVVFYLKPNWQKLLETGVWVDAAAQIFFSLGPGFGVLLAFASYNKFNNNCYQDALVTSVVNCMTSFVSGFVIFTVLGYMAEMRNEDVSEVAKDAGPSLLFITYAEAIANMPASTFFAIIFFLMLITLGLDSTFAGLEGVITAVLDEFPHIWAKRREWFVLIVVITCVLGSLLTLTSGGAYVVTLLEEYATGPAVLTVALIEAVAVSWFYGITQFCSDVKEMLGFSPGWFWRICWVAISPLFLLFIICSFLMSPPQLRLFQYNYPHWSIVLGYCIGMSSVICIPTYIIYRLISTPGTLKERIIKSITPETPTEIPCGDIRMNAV
Experimental: This activity is determined in an assay which measures ³H-serotonin uptake in rat whole brain and hypothalamic synaptosomes. The assay described below is used as a biochemical screen for potential antidepressants which block serotonin (5-hydroxytryptamine [5HT]) uptake.
1. Krebs-Henseleit Bicarbonate Buffer, pH 7.4 (KHBB): Prepare a 1 liter batch containing the following salts.
The batch is aerated for 60 minutes with 95% 0₂/5% CO₂, the pH is checked to insure it is at 7.4 ± 0.1. 2. Add 0.32 M sucrose: 21.9 g of sucrose, q.s. to 200 ml. 3. A 0.1mM stock solution of serotonin creatinine SO₄ is made up in 0.01 N HCl. This is used to dilute the specific activity of the radiolabeled 5HT. 4. 5-[1,2-³H(N)]-Hydroxytryptamine creatinine sulfate (serotonin) specific activity 20-30 Ci/mmol is used. The final desired concentration of ³H-5HT in the assay is 50 nM. The dilution factor is 0.8. The KHBB is made up to contain 62.5 nM of [³H]-5HT. Add to 100 ml of KHBB.
5. For most assays, a 1mM stock solution of the test compound is made up in a suitable solvent and serially diluted such that the final concentration in the assay ranges from 2 X 10⁻⁸ to 2 X 10⁻⁵M. Seven concentrations are used for each assay.
Male Wistar rats are decapitated and the brain rapidly removed. Either whole brain minus cerebella or hypothalmus is weighed and homogenized in 9 volumes of ice-cold 0.32 M sucrose using a Potter-Elvejhem homogenizer. The homogenate is centrifuged at 1000 g for 10 minutes at 0-4°C. The supernatant (S₁) is decanted and is used for uptake determination.
800 µl KHBB + [³H]-5HT 20 µl Vehicle or appropriate drug 200 µl Tissue suspension concentration
Tubes are incubated at 37°C under a 95%O₂/5% CO₂ atmosphere for 5 minutes. For each assay, 3 tubes are incubated with 20 µl of vehicle at 0°C in an ice bath. After incubation all tubes are immediately centrifuged at 4000 g for 10 minutes. The supernatant fluid is aspirated and the pellets dissolved by adding 1 ml of solubilizer (Triton X-100 and 50% ethanol, 1:4 v/v). The tubes are vigorously vortexted, decanted into scintillation vials, and counted in 10 ml of Liquiscint scintillation counting cocktail. Active uptake is the difference between cpm at 37°C and 0°C. The per cent inhibition at each drug concentration is the mean of three determinations. IC₅₀ values are derived from log-probit analysis.

Q: Which ED50 (CK-1 male mice; apomorphine 1.5 mg/kg subcutaneously, climbing score vs control group set to 100%, linear regression analysis) does the source give for `CN1CCN(C2=Nc3cc(Cl)ccc3Nc3ccccc32)CC1` [Clozapine, reference compound] here?
A: Its ED50 is 8.1 mg/kg.

Q: `COc1cc(C(C)=O)ccc1OCCN1C2CCC1CC(c1noc3ccccc13)C2` (stereo not shown) [[4-[2-[3-[1,2-Benzisoxazol-3-yl]-8-azabicyclo[3.2.1]octan-8-yl]ethoxy]-3-methoxyphenyl]ethanone fumarate] was tested. Which IC50 [1] did it give?
A: Its IC50 is 10 nM.

Q: `COc1cc(C(C)=O)ccc1OCCN1C2CCC1CC(c1noc3cc(F)ccc13)C2` (stereo not shown) [[4-[2-[3-[6-Fluoro-1,2-benzisoxazol-3-yl]-8-azabicyclo[3.2.1]octan-8-yl]ethoxy]-3-methoxyphenyl]ethanone fumarate] was tested. Which ED50 (CK-1 male mice) did it give?
A: Its ED50 is 12.5 mg/kg.

Q: For `COc1cc(C(C)=O)ccc1OCCCN1C2CCC1CC(c1noc3cc(F)ccc13)C2` (stereo not shown) [[4-[3-[3-[6-Fluoro-1,2-benzisoxazol-3-yl]-8-azabicyclo[3.2.1]octan-8-yl]propoxy]-3-methoxyphenyl] ethanone monohydrochloride], which ED50 (CK-1 male mice) is on record?
A: The ED50 was 5 mg/kg.

Q: `COc1cc(C(C)=O)ccc1OCCCCN1C2CCC1CC(c1nsc3ccccc13)C2` (stereo not shown) [[4-[4-[3-[1,2-Benzisothiazol-3-yl]-8-azabicyclo[3.2.1]octan-8-yl]butoxy]-3-methoxyphenyl]ethanone monohydrochloride] was tested. Which IC50 [1] did it give?
A: Its IC50 is 27 nM.

Q: `COc1cc(C(C)=O)ccc1OCCCCN1C2CCC1CC(c1n[nH]c3ccccc13)C2` (stereo not shown) [[4-[4-[3-[1H-Indazol-3-yl]-8-azabicyclo[3.2.1]octan-8-yl]butoxy]-3-methoxyphenyl]ethanone fumarate hemihydrate] was tested. Which IC50 [1] did it give?
A: The IC50 was 70 nM.

Q: `COc1cc(C(C)=O)ccc1OCCCCN1C2CCC1CC(c1n[nH]c3cc(F)ccc13)C2` (stereo not shown) [[4-[4-[3-[6-Fluoro-1H-indazol-3-yl]-8-azabicyclo[3.2.1]-octan-8-yl]butoxy]-3-methoxyphenyl]ethanone] was tested. Which IC50 [1] did it give?
A: Its IC50 is 20 nM.
